Legend:
Full length Human HDAC8 = molecular target: T1, Full length Human HDAC8 (Homo sapiens, UniProt Q9BY41); assay: Caliper endpoint assay for HDAC enzymatic activity (HDAC8); type: biochemical; settings: in vitro enzymatic, 30 min pre-incubation, 1 μM substrate peptide
T1 construct: Full length Human HDAC8; HIS (N); host or cells: baculovirus expression system
T1 sequence (Q9BY41 1-377): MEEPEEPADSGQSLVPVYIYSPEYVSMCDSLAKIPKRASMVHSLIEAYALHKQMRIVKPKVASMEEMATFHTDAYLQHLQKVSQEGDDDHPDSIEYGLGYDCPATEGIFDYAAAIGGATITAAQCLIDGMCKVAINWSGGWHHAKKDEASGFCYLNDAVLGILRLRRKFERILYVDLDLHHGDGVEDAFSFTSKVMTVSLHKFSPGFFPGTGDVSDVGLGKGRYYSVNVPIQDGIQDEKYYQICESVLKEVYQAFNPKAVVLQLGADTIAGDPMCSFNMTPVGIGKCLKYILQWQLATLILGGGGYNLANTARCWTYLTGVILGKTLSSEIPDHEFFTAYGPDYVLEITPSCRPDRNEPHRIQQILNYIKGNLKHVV

Full length Human HDAC6 = molecular target: T2, Full length Human HDAC6 (Homo sapiens, UniProt Q9UBN7); assay: Caliper endpoint assay for HDAC enzymatic activity (HDAC6); type: biochemical; settings: for IC50: in vitro enzymatic, Caliper endpoint assay, 30 min pre-incubation, 1 μM substrate peptide; for Selectivity (6 v 8): ratio of HDAC8 IC50/HDAC6 IC50
T2 construct: Full length Human HDAC6; FLAG (C); host or cells: baculovirus expression system
T2 sequence (Q9UBN7 1-1215): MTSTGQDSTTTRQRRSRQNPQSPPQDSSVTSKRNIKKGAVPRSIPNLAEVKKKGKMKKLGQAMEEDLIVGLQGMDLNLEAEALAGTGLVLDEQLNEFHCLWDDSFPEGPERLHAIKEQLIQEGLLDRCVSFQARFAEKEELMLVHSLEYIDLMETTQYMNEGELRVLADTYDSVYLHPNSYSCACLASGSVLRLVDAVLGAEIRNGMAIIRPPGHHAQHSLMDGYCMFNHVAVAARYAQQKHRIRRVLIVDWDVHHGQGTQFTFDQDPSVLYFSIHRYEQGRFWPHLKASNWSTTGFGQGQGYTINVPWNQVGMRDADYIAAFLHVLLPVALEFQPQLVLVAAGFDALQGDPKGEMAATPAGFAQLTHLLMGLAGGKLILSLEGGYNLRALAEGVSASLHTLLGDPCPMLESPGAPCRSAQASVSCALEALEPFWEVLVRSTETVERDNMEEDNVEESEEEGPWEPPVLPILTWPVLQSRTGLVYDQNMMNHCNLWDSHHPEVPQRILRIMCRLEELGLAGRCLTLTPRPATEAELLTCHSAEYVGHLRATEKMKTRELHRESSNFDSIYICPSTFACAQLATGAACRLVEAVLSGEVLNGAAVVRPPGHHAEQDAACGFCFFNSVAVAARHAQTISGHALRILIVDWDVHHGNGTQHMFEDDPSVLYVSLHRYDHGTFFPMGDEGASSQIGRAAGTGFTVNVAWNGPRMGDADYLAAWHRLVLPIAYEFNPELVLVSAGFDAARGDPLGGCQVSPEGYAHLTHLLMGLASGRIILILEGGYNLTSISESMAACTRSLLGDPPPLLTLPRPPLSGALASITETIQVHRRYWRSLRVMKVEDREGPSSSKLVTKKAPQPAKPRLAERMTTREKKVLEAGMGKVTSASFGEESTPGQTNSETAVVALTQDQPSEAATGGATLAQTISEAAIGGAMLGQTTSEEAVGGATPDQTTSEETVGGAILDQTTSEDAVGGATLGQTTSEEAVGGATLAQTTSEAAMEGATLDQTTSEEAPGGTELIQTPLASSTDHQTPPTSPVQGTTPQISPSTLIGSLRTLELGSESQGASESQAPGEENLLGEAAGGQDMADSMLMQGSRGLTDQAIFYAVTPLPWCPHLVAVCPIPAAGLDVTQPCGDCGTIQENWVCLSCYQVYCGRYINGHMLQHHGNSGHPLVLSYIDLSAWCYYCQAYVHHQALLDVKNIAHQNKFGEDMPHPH

| Compound | IC50 (Full length Human HDAC8) | IC50 (Full length Human HDAC6) | Selectivity (6 v 8) (Full length Human HDAC6) |
| --- | --- | --- | --- |
| CN1[C@@H]2CC[C@H]1CC(CN1CCc3cc(C(=O)NO)cc(F)c3C1)C2 (single isomer, unassigned) [Compound 483] | 1 to 10 µM | 1 to 100 nM | IV (IV: >100-1000) |
| CC[C@@H]1Cc2c(F)cc(C(=O)NO)cc2CN1C1COC1 (single isomer, unassigned) [Compound 600] | 1 to 10 µM | 1 to 100 nM | IV (IV: >100-1000) |
| O=C(NO)c1cc(F)c2c(c1)CN1CCC[C@H]1C2 [Compound 123] | 1 to 10 µM | 100 to 1000 nM | III (III: >10-100) |
| O=C(NO)c1ccc2c(c1)C[C@H]1CCCN1C2 [Compound 122] | 1 to 10 µM | 100 to 1000 nM | III (III: >10-100) |
| CC(C)N1CC2(CCCCC2)CC[C@@H]1Cc1cc(F)cc(C(=O)NO)c1 (single isomer, unassigned) [Compound 275] | 1 to 10 µM | 1000 to 10000 nM | I (I: 0.1-1) |
| CC[C@H]1Cc2c(F)cc(C(=O)NO)cc2CN1C1CCCC1 (single isomer, unassigned) [Compound 581] | 10 to 100 µM | 100 to 1000 nM | III (III: >10-100) |
| CN1Cc2cc(C(=O)NO)ccc2[C@@H]2CCCN21 (single isomer, unassigned) [Compound 160] | 0.1 to 1 µM | 100 to 1000 nM | – |

Second part, the molecule after the results:

| IC50 (Full length Human HDAC8) | IC50 (Full length Human HDAC6) | Selectivity (6 v 8) (Full length Human HDAC6) | Compound |
| --- | --- | --- | --- |
| 1 to 10 µM | 1 to 100 nM | V (V: >1000) | O=C(NO)c1cc(F)c2c(c1)CCN(CC13CCC(CC1)C(=O)N3)C2 [Compound 461, 8-fluoro-2-[(3-oxo-2-azabicyclo[2.2.2]octan-1-yl)methyl]-3,4-dihydro-1H-isoquinoline-6-carbohydroxamic acid] |
| 10 to 100 µM | 1 to 100 nM | V (V: >1000) | O=C(NO)c1cc(F)c2c(c1)CCN([C@H]1CC[C@]13CCOC3)C2 (single isomer, unassigned) [Compound 316] |
| 10 to 100 µM | 1 to 100 nM | IV (IV: >100-1000) | O=C(NO)c1cc(F)c2c(c1)CCN(C1CC3(CCNCC3)C1)C2 [Compound 197, 2-(7-azaspiro[3.5]nonan-2-yl)-8-fluoro-3,4-dihydro-1H-isoquinoline-6-carbohydroxamic acid] |
| 10 to 100 µM | 100 to 1000 nM | – | O=C(NO)c1cc(F)c2c(c1)C[C@@H]1CCC3(CCCCC3)CN1C2 (single isomer, unassigned) [Compound 137] |
| 10 to 100 µM | 1 to 100 nM | IV (IV: >100-1000) | CN1CCC[C@@]2(CC[C@@H]2N2CCc3cc(C(=O)NO)cc(F)c3C2)C1 (single isomer, unassigned) [Compound 364] |
| 0.1 to 1 µM | 1 to 100 nM | III (III: >10-100) | CC[C@@H]1Cc2c(F)cc(C(=O)NO)cc2CN1CC1CC2(CCCCC2)C1 (single isomer, unassigned) [Compound 521] |
| 10 to 100 µM | 1 to 100 nM | V (V: >1000) | CN1CC2(CCC(CN3CCc4cc(C(=O)NO)cc(F)c4C3)CC2)C1 [Compound 465, 8-fluoro-2-[(2-methyl-2-azaspiro[3.5]nonan-7-yl)methyl]-3,4-dihydro-1H-isoquinoline-6-carbohydroxamic acid] |
| 1 to 10 µM | 1 to 100 nM | IV (IV: >100-1000) | CNC12CC(CN3CCc4cc(C(=O)NO)cc(F)c4C3)(C1)C2 [Compound 487, 8-fluoro-2-[[3-(methylamino)-1-bicyclo[1.1.1]pentanyl]methyl]-3,4-dihydro-1H-isoquinoline-6-carbohydroxamic acid] |
| 10 to 100 µM | 1 to 100 nM | V (V: >1000) | O=C(NO)c1cc(F)c2c(c1)CCN([C@H]1C[C@@]3(CCCCO3)C1)C2 (single isomer, unassigned) [Compound 340, 8-fluoro-2-(5-oxaspiro[3.5]nonan-2-yl)-3,4-dihydro-1H-isoquinoline-6-carbohydroxamic acid] |

Reference: patent publication US12655106B2 (Eikonizo Therapeutics, Inc., priority 2021, dated 2026)
